Tested on: clinically latent microorganisms
Test: Screening for ability to kill clinically latent microorganisms (method of WO2000028074)
Type: cell-based
Settings: observed by the Applicant
From the text: International Patent Application, Publication Number WO2000028074 describes a method of screening compounds to determine their ability to kill clinically latent microorganisms. […] This observation has necessitated the development of novel antimicrobials which may be used to kill clinically latent microorganisms.
By way of example, WO2000028074 describes a suitable method of screening compounds to determine their ability to kill clinically latent microorganisms. A typical method may include the following steps: • (1) growing a bacterial culture to stationery phase; • (2) treating the stationery phase culture with one or more antimicrobial agents at a concentration and or time sufficient to kill growing bacteria, thereby selecting a phenotypically resistant sub-population; • (3) incubating a sample of the phenotypically resistant subpopulation with one or more test compounds or agents; and • (4) assessing any antimicrobial effects against the phenotypically resistant subpopulation.

Row | Compound | activity against clinically latent microorganisms
1 | CC[C@H]1OC(=O)[C@H](C)[C@@H](O[C@H]2C[C@@](C)(OC)[C@@H](O)[C@H](C)O2)[C@H](C)[C@@H](O[C@@H]2O[C@H](C)C[C@H](N(C)C)[C@H]2O)[C@](C)(O)C[C@@H](C)CN(C)[C@H](C)[C@@H](O)[C@]1(C)O [azithromycin] | little or no activity
2 | CC(=O)NC[C@H]1CN(c2ccc(N3CCOCC3)c(F)c2)C(=O)O1 [linezolid] | little or no activity

Reference: patent US9789101B2, “Methods and compositions for treating microbial infection using pyrroloquinone” (HELPERBY THERAPEUTICS LIMITED, priority 2010, dated 2017)
